The text below walks through data of patent US11371055B2, “Herbicide resistance genes” (CORTEVA AGRISCIENCE LLC, priority 2005, dated 2022).

A word on the Km: it is the concentration of substrate that gives half-maximal velocity.

This experiment has as its target T1, AAD-12 (v2) (Delftia acidovorans, UniProt P83309).
T1 construct: made in house; host or cells: Pseudomonas fluorescens strain MB324 (construct pDAB739)
Kind of experiment: Colorimetric phenol detection assay of AAD-12 activity. Type of experiment: biochemical. How it is done: Enzyme activity was measured by colorimetric detection of the product phenol using a protocol modified from that of Fukumori and Hausinger (1993) (J. Biol. Chem. 268: 24311-24317) to enable deployment in a 96-well microplate format. The colorimetric assay has been described for use in measuring the activity of dioxygenases cleaving 2,4-D and dichlorprop to release the product 2,4-dichlorophenol. The color yield from several phenols was compared to that of 2,4-dichlorophenol using the detection method previously described to ascertain which phenol products could be readily detected. […] Pyridinols derived from fluroxypyr and triclopyr produced no significant color. The color yield of 2,4-dichlorophenol was linear and proportional to the concentration of phenol in the assay up to ˜500 μM.
Assays were initiated by addition of the aryloxyalkanoate substrate, enzyme or α-ketoglutarate at time zero. After 5 minutes of incubation at 25° C., the reaction was terminated by addition of 30 μl of a 1:1:1 mix of 50 mM Na EDTA; pH 10 buffer (3.09 g boric acid+3.73 g KCl+44 ml 1 N KOH) and 0.2% 4-aminoantipyrine. Then 10 μl 0.8% potassium ferricyanide was added and after 5 or 10 min, the absorbance at 510 nm was recorded in a spectrophotometric microplate reader. Blanks contained all reagents except for enzyme to account for the occasional slight contamination of some of the substrates by small amounts of phenols.
The results are shown in FIG. 3, which illustrates activity of AAD-12 (v2) on 2,4-D and enantiomers of dichlorprop. 4.4 μg AAD-12 (v2) was incubated with 0.5 mM substrate (1 mM for (R,S)-dichlorprop) and the reaction initiated by addition of α-ketoglutarate. After 5 minutes, the reaction was quenched, and the absorbance at 510 nm determined after addition of colorimetric detection reagents. The background value without enzyme was subtracted.

Molecules are shown by their SMILES.

T1 sequence (P83309 whole entry, looked up, natural form): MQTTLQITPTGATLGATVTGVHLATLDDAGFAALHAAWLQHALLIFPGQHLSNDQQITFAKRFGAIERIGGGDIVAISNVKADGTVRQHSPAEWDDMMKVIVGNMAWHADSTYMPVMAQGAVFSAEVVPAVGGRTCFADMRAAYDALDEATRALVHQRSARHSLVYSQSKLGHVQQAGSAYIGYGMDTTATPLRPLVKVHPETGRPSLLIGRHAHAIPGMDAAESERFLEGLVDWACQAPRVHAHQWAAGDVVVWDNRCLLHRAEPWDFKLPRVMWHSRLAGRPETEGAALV

In the case of `CC(Oc1ccc(Cl)cc1Cl)C(=O)O` (racemic) [(R,S)-dichlorprop], the “activity of AAD-12 (v2) on substrate (absorbance at 510 nm, FIG. 3)” value (4.4 μg AAD-12 (v2), 1 mM substrate, 5 minutes) is recorded as “excellent activity”. Where the note is “Phenol detection”, the “Substrate inhibition at 2 mM” value worked out at 55% and the “kcat, min^−1 (±SE)” value is listed as 63.4 (±0.5) min^−1. In addition, the Km (Phenol detection, for (R,S)-dichlorprop calculated assuming 50% of the racemic mixture was available as a substrate, read-out: Km, μM (±SE)) is 122 µM.
